Assay results published in patent US20240315244A1, “ANTIVIRAL COATING AGENT, ANTIVIRAL AGENT, LAMINATED BODY, AND PACKAGE OR CONTAINER” (National Institute for Materials Science, priority 2021, published 2024).

Assay: solubility in organic solvents
Type: physicochemical

solubility in low-polarity solvents (low-polarity solvents, such as ethyl acetate): insoluble
solubility in polar solvents (polar solvents, such as NPM or MEK): soluble
Compound: O=C(OCC1OC(OC(=O)c2cc(O)c(O)c(OC(=O)c3cc(O)c(O)c(O)c3)c2)C(OC(=O)c2cc(O)c(O)c(OC(=O)c3cc(O)c(O)c(O)c3)c2)C(OC(=O)c2cc(O)c(O)c(OC(=O)c3cc(O)c(O)c(O)c3)c2)C1OC(=O)c1cc(O)c(O)c(OC(=O)c2cc(O)c(O)c(O)c2)c1)c1cc(O)c(O)c(OC(=O)c2cc(O)c(O)c(O)c2)c1 (centres unmarked) [tannic acid, Tannic acid]
